Drawing on patent US20220273659A1, “HETEROCYCLIC COMPOUNDS AS KINASE INHIBITORS” (NUVATION BIO INC., priority 2019, published 2022), this text covers inhibition and IC50 for seven compounds.

Bounds are passed on as bounds.

For assay [1], the system named is Rb Ser780 phosphorylation in MCF-7 cells. The experiment in a line: Determination of pRb levels (Ser780 phosphorylation, ELISA). It is filed as cell-based. The note with it: Homo sapiens; for inhibition at 0.01 µM: MCF7, 0.01 μM; for inhibition at 0.01 µM / inhibition at 0.1 µM / inhibition at 1 µM: 24H treatment, percentage of vehicle control; for inhibition at 0.1 µM: MCF7, 0.1 μM; for inhibition at 1 µM: MCF7, 1 μM. The method, then: Hypo-phosphorylation of the retinoblastoma protein (Rb) by cyclin D:Cdk4/6 complexes results in active Rb, which is a clinically relevant biomarker associated with CDK4 or CDK6 inhibition. As a confirmatory measure of functional activity of CDK4/6, the Ser780 phosphorylation state of Rb was assessed. MCF-7 cells were plated at 2.5×10^5 to 3.0×10^6 cells/well in 6-well cell-culture plates and incubated at 37° C. for 24H in MEM medium supplemented with 10% FBS. Cells were treated for 24H with a medium containing test compound at various concentrations (e.g., 0.01, 0.1, […]) or with DMSO (≤1%) in duplicate. After incubation period, the media was removed, and cells were rinsed once with ice-cold PBS and lysed with 0.2 mL of Cell Lysis Buffer containing 1 mM PMSF and Protease Inhibitor. Protein concentration was estimated following Bradford method. The lysis and the Rb measurements were performed following the manufacturer's ELISA kit protocols and buffers (Cell Signaling Technology, Cat. No.: 13016C). Rb inhibition of test compounds was calculated as percentage of vehicle control. In some cases, a nonlinear regression model with a sigmoidal dose response and variable slope within GraphPad Prism was used to calculate the IC50 value of Rb inhibition for individual test compounds.
(In an ELISA, binding on a coated surface is turned into a signal by an enzyme label.)

The test system of assay [2] is MCF-7-PR (palbociclib-resistant MCF-7) cells. The experiment in a line: Cell viability in palbociclib-resistant cell line. It is filed as cell-based. The following applies: Homo sapiens, MCF7; Table 5; palbociclib-resistant cell line maintained at about 850 nM palbociclib. On the procedure: Cells were treated with test compounds at 7 to 9 concentrations within a desired concentration range (e.g. 1.1 nM-10 μM) on day 2 by series diluting the test compound stock solution (10 mM in DMSO) with culture medium. Treatment duration was 24 Hr for BT-549 cells and 144 Hr (with a medium change at 72 Hr) for MCF-7 and DU4475 cells. Cell viability was assessed by Cell Titer-Glo® as recommended by Promega (Cat. No.: G7572), or by resazurin assay (Sigma Aldrich, Cat. No.: R7017) post treatment.
Cell viability data were plotted using GraphPad Prism (GraphPad Software, Inc., San Diego, Calif.). In addition, a nonlinear regression model with a sigmoidal dose response and variable slope within GraphPad Prism was used to calculate the IC50 value of individual test compounds.
The effects of test compounds in a palbociclib-resistant cell line and a parental, non-resistant cell line were compared. The palbociclib-resistant cell line (“MCF-7-PR”) was derived from the parental, non-resistant cell line (MCF-7 breast adenocarcinoma cells) by culture of cells over a period of three months in increasing concentrations of palbociclib, starting from about 350 nM and ending at about 850 nM, the final concentration at which they were then maintained in culture. The MCF-7-PR cells were checked using a cell viability assay to confirm that they had at least 5-fold resistance to palbociclib compared to parental MCF-7 cells, as measured by an increase in the cell viability IC50 values. Assessment of cell viability following treatment with palbociclib or test compounds was performed according to the method described above for MCF-7 cells.

Assay [3] deals with BT-549 breast ductal carcinoma cells. Description: Cancer cell proliferation assay, single agent (cell viability). The following applies: Homo sapiens, Table 4, Rb negative, treatment 24 Hr, Cell Titer-Glo or resazurin. The assay is classed as cell-based. Summed up: (§1)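 Cells seeded day 1, then exposed on day 2 to 7–9 compound concentrations (e.g. 1.1 nM–10 μM); BT-549 for 24 h, MCF-7 and DU4475 for 144 h with medium change at 72 h. Viability by CellTiter-Glo or resazurin; IC50 from variable-slope sigmoidal fit.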
In general terms: Cellular ATP, detected with luciferase, serves as a proxy for viable cell number.

In assay [4] the test system is MCF-7 breast adenocarcinoma cells. The assay is described as above. It is filed as cell-based. The note with it: Homo sapiens. Summed up:
as §1

Assay [5] relates to DU4475 breast carcinoma cells. Described as above. The assay is classed as cell-based. The following applies: Homo sapiens, DU-4475; Table 4; Rb negative; treatment 144 Hr with medium change at 72 Hr; Cell Titer-Glo or resazurin. Summed up:
as §1

A further assay deals with T1, CDK9 (cyclin K) (Homo sapiens, UniProt P50750).
T1 construct: purchased Invitrogen Life Technologies (assay service)
T1 sequence (P50750 whole entry): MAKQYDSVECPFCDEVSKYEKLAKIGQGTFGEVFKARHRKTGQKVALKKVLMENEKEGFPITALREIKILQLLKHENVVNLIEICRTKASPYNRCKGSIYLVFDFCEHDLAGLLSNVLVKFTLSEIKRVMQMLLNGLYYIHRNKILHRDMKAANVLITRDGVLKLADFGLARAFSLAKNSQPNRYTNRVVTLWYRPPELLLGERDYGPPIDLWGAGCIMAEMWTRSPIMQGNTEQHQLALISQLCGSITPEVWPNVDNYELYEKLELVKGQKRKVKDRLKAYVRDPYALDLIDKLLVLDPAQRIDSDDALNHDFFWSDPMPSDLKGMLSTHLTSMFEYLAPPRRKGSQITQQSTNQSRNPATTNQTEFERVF
T1 sequence (O75909 whole entry partner): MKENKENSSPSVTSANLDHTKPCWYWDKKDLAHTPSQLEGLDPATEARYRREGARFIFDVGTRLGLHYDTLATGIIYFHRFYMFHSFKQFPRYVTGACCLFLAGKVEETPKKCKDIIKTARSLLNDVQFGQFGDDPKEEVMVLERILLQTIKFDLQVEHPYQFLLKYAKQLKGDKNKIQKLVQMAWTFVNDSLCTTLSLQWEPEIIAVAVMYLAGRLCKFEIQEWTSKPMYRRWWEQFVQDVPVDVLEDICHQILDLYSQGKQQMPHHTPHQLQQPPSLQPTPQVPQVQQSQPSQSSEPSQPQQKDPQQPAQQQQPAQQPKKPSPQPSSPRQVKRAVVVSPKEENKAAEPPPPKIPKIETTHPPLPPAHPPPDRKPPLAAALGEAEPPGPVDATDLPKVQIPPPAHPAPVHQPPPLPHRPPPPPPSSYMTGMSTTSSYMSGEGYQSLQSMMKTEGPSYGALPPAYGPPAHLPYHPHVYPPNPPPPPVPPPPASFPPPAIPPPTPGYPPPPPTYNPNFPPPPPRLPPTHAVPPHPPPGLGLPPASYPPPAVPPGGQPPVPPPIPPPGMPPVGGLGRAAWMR
The experiment in a line: LanthaScreen Eu Kinase Binding Assay. The method, then: 0.16 μL of 100×test compound in 100% DMSO (at specific solutions) were mixed with 3.84 μL of Kinase Buffer (50 mM HEPES pH 7.5, 0.01% BRIJ-35, 10 mM MgCl2, 1 mM EGTA), 8.0 μL of 2× Kinase (5 nM)/Antibody (Eu-anti-His, 2 nM) Mixture and 4.0 μL of 4×Tracer (Tracer 236, 100 nM). The plates were shaken for 30 seconds, and incubated for 60 minutes at room temperature. The plates were read on fluorescence plate reader with Dual emission at 615 nm and 665 nm.
The following equations were used for LanthaScreen Eu Kinase Binding Assay Data Analysis. Percent inhibition (100-% activity) was fitted to the “four-parameter logistic model” in XLfit for determination of IC50 values.
(Time-resolved FRET reads energy transfer from a long-lived donor to a nearby acceptor.)

A further assay deals with T2, CDK12 (cyclin K) (Homo sapiens, UniProt Q9NYV4).
T2 construct: purchased Eurofins Pharma Discovery (assay service)
T2 sequence (Q9NYV4 whole entry): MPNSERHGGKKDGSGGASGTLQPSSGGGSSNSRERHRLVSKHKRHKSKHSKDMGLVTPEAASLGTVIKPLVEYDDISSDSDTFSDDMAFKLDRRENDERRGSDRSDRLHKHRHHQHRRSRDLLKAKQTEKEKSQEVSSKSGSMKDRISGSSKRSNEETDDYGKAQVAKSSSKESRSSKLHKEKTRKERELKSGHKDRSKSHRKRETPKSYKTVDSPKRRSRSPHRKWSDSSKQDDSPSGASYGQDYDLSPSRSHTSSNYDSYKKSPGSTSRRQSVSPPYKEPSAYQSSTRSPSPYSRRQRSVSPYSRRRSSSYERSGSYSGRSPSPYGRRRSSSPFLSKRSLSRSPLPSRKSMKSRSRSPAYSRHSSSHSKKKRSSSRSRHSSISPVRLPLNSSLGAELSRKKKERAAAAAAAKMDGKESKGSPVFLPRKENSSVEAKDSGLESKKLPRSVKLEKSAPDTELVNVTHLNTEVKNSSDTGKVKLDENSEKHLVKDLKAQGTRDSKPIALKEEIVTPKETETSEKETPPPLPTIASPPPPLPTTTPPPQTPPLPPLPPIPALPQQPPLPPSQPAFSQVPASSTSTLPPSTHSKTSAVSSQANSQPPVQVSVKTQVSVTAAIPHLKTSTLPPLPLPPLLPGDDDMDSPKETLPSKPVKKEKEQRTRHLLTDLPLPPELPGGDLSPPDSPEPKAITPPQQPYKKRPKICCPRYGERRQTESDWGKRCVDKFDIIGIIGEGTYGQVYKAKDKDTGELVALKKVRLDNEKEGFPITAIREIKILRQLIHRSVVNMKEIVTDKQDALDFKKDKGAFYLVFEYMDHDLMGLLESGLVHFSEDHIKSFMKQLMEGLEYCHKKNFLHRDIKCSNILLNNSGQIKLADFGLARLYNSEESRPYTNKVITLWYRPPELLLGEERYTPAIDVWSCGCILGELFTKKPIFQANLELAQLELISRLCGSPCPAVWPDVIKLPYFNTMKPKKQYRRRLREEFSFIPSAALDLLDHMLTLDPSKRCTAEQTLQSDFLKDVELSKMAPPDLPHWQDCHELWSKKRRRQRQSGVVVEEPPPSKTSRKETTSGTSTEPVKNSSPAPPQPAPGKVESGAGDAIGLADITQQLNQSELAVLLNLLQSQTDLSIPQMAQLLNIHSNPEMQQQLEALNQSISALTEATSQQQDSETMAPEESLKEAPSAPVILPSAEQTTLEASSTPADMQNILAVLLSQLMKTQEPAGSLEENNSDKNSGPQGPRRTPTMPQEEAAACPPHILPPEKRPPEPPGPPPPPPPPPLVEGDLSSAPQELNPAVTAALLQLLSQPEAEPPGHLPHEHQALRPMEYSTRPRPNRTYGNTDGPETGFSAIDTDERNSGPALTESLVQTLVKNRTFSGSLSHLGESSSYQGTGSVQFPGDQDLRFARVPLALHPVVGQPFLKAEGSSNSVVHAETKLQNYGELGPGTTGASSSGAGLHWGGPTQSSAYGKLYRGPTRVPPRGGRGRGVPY
T2 sequence (O75909 whole entry partner): as the sequence (O75909 whole entry partner) above
Description: KinaseProfiler radiometric protein kinase assay. The assay is classed as biochemical. On the procedure: IC50 values of compounds against CDK12 (cyclin K) were determined by KinaseProfiler™ radiometric protein kinase assay at Eurofins Pharma Discovery (Dundee, UK). Compounds were prepared to 50× final assay concentration in 100% DMSO. This working stock of the compound was added to the assay well as the first component in each reaction. CDK12/Cyclin K was diluted in buffer (20 mM TRIS, 0.2 mM EDTA, 0.1%-mercaptoethanol, 0.01% Brij-35, 5% glycerol, mg/ml BSA) prior to addition to the reaction mix. CDK12/Cyclin K was incubated with 20 mM Tris/HCl pH 8.5, 0.2 mM EDTA, 300 μM SRSRSRSRSRSRSR, 10 mM Magnesium acetate and [γ-^33P-ATP] (specific activity and concentration as required). The reaction was initiated by the addition of the Mg/ATP mix. After incubation for 120 minutes at room temperature, the reaction was stopped by the addition of phosphoric acid to a concentration of 0.5%. 10 μl of the stopped reaction was spotted onto a P30 filtermat and washed four times for 4 minutes in 0.425% phosphoric acid and once in methanol prior to drying and scintillation counting. Results were calculated as a percentage of the mean kinase activity in positive control samples. Data were fitted in XLfit for determination of IC50 values.

Where [6] appears, read: MCF7, Table 4, Rb positive, treatment 144 Hr with medium change at 72 Hr, Cell Titer-Glo or resazurin.
Where [7] appears, read: MCF7, Table 5, parental, non-resistant cell line compared with MCF-7-PR.

The inhibition is the share of the control response that was lost under treatment. High values mean a response far below the control, low ones a response near the control. Usually IC50 stands for the concentration that gives 50% inhibition. In assay [1], `N#Cc1cc2cnc(Nc3ccc(N4CCNCC4)c(F)c3)nc2n(C2CCCC2)c1=O` [Compound No. 13, 8-cyclopentyl-2-((3-fluoro-4-(piperazin-1-yl)phenyl)amino)-7-oxo-7,8-dihydropyrido[2,3-d]pyrimidine-6-carbonitrile] displayed an inhibition at 0.01 µM of 35%. The compound also had an inhibition at 0.1 µM in assay [1] of 58%. The compound further returned an inhibition at 1 µM in assay [1] of 93%. Besides, the IC50 is 481 nM in assay [2], 1400 nM in assay [3], 158 nM in assay [4] (setting [6]) and 119 nM in assay [4] (setting [7]).
Turning to `N#Cc1cc2cnc(Nc3ccc4c(c3)CNCC4)nc2n(C2CCCC2)c1=O` [Compound No. 29, 8-cyclopentyl-7-oxo-2-((1,2,3,4-tetrahydroisoquinolin-7-yl)amino)-7,8-dihydropyrido[2,3-d]pyrimidine-6-carbonitrile], in assay [1], testing at 0.01 µM gave an inhibition of 12%, at 0.1 µM the inhibition was 27% and the inhibition at 1 µM came out at 44%. For the same compound, the midpoint of inhibition in assay [5], the IC50, lay at 1280 nM. The IC50 in assay [4] (setting [6]) was determined as 240 nM.
On to `CS(=O)(=O)N1CCC(Nc2ncc3cc(C#N)c(=O)n(C4CC5CC5C4)c3n2)CC1` (stereo not drawn) [Compound No. 341, 8-(bicyclo[3.1.0]hexan-3-yl)-2-((1-(methylsulfonyl)piperidin-4-yl)amino)-7-oxo-7,8-dihydropyrido[2,3-d]pyrimidine-6-carbonitrile], for which the 50% inhibitory concentration (IC50) in assay [2] worked out at 690 nM; in assay [5], 940 nM; in assay [4] (setting [6]), 835 nM; in assay [4] (setting [7]) it was 487 nM.
Take `N#Cc1cc2cnc(Nc3ccc4c(c3)CCNC4)nc2n(C2CC3CC3C2)c1=O` (stereo not drawn) [Compound No. 342, 8-(bicyclo[3.1.0]hexan-3-yl)-7-oxo-2-((1,2,3,4-tetrahydroisoquinolin-6-yl)amino)-7,8-dihydropyrido[2,3-d]pyrimidine-6-carbonitrile]: the 50% inhibitory concentration (IC50) in assay [2] was 361 nM; in assay [5], 485 nM; in assay [4] (setting [6]), 415 nM; in assay [4] (setting [7]) it was 192 nM.
On to `N#Cc1cc2cnc(Nc3ccc4c(c3)CCNC4)nc2n(C2CCCC2)c1=O` [Compound No. 31, 8-cyclopentyl-7-oxo-2-((1,2,3,4-tetrahydroisoquinolin-6-yl)amino)-7,8-dihydropyrido[2,3-d]pyrimidine-6-carbonitrile], for which the inhibition at 0.01 µM in assay [1] turned out to be 1%. The same compound gave an inhibition at 0.1 µM in assay [1] of 27%. Further, the inhibition at 1 µM in assay [1] is 95%. Also, the 50% inhibitory concentration (IC50) at CDK9 (cyclin K) is 20 nM; against CDK12 (cyclin K) it was > 10000 nM; in assay [2], 248 nM; in assay [3] it was 1110 nM; in assay [5], 525 nM; in assay [4] (setting [6]) it was 130 nM. The IC50 in assay [4] (setting [7]) was found to be 157 nM.
For the compound `CS(=O)(=O)N1CCC(Nc2ncc3cc(C#N)c(=O)n(C4CCC(F)(F)C4)c3n2)CC1` (racemic) [Compound No. 345, 8-(3,3-difluorocyclopentyl)-2-((1-(methylsulfonyl)piperidin-4-yl)amino)-7-oxo-7,8-dihydropyrido[2,3-d]pyrimidine-6-carbonitrile], the IC50 in assay [2] was found to be 6230 nM; in assay [5], 3690 nM; in assay [4] (setting [6]), 3140 nM; in assay [4] (setting [7]), 3970 nM.
For the compound `CS(=O)(=O)N1CCC(Nc2ncc3cc(C#N)c(=O)n(C4CCCC4)c3n2)CC1` [Compound No. 93, 8-cyclopentyl-2-((1-(methylsulfonyl)piperidin-4-yl)amino)-7-oxo-7,8-dihydropyrido[2,3-d]pyrimidine-6-carbonitrile], the IC50 in assay [1] (MCF7, 24H treatment, read-out: Inhibition of Rb phosphorylation IC50) was < 123 nM; in assay [2] it was 911 nM; in assay [5], 793 nM; in assay [4] (setting [6]), 2000 nM; in assay [4] (setting [7]) it was 558 nM.
